Legend:
[1] = cited from earlier work
[2] = parameters: method as in Zayed et al., 2012; Sun et al., 2014; conditions: result in words; ref Zayed et al., 2012; Sun et al., 2014; cited from earlier work
[3] = Trans-mucosal permeation test (vertical diffusion system); format: in vitro ADME; conditions: HBSS, donor-receiver chambers, 0-40 min; equivalent to 50 mg Sild; result in words
Protocol: Trans-mucosal permeation profile of Sild was evaluated in vitro by using a specific device according to [Delvadia et al. (2012)] appropriately modified. Briefly, the device consisted in a vertical diffusion system featured by donor–receiver chambers separated by a disposable cellulose–acetate membrane (pore 0.45 μm). The donor cell contained 1.5 ml of HBSS, whereas the receiver chamber was part of a closed recirculation circuit of 30 ml including the volumes of tubing and reservoir. Sampling was performed from receiver chamber reservoir at the time intervals of 0, 5, 10, 20, 30, and 40 min and replaced by an equivalent volume of fresh HBSS. The samples were analyzed by HPLC-UV for drug content ([Fejős et al., 2014]). Data were normalized on the highest permeated Sild concentration observed for pure Sild citrate. Tests were performed in triplicate and results were reported as mean value ± standard deviation.

**Q.** Which “time to peak plasma concentration” value ([1]; after oral administration, ref Gupta et al., 2005) does the source give for `CCCc1nn(C)c2c(=O)[nH]c(-c3cc(S(=O)(=O)N4CCN(C)CC4)ccc3OCC)nc12` [Sild, Sildenafil] here?
**A.** 0.5 to 2 h

**Q.** What about the oral bioavailability ([1]; ref Gupta et al., 2005) of the same compound?
**A.** 38–41%

**Q.** What about the water solubility [2] of the same compound?
**A.** low water solubility

**Q.** For `CCCc1nn(C)c2c(=O)[nH]c(-c3cc(S(=O)(=O)N4CCN(C)CC4)ccc3OCC)nc12.O=C(O)CC(O)(CC(=O)O)C(=O)O` [Sild citrate], which “permeation of Sild through cellulose acetate membrane” value [3] is on record?
**A.** free and fast diffusion between the two chambers

**Q.** With `CCCc1nc(C)c2c(=O)[nH]c(-c3cc(S(=O)(=O)N4CCN(CC)CC4)ccc3OCC)nn12` [Vardenafil] as the compound, how does the bioavailability ([1]; ref Center for Drug Evaluation and Research, 2003) read?
**A.** ~15%

From publication PMC5808105, “Sublingual Administration of Sildenafil Oro-dispersible Film: New Profiles of Drug Tolerability and Pharmacokinetics for PDE5 Inhibitors” (Frontiers in Pharmacology, 2018)
